Earlier results on four molecules are cited in PubChem BioAssay AID1259409 (Chemical Carcinogenesis Research Information System (CCRIS), 2018).

The subject of this data set is rodent chemically induced tumor inhibition, incidence and multiplicity. The data set is described as follows: CCRIS tumor inhibitor studies.

Structures are written as SMILES.

Regarding `O=C(NC(Cc1cc(=O)[nH]c2ccccc12)C(=O)O)c1ccc(Cl)cc1` (stereo not given), the “tumour outcome (control, treated, inhibition, significance)” value is recorded as 22/33 (67%), 18/33 (55%), 18%, not significant (Carcinogen: N-ETHYL-N'-NITRO-N-NITROSOGUANIDINE, 4245-77-6, Dose [Inhibitor]: 0, 20 MG/KG/D IN DIET FOR 16 WK (STUDY DURATION: 16 WK), Route [Inhibitor]: ORAL, Species: MOUSE, Strain/Sex: C57BL/MALE, Target Tissue: Type of Lesion: DUODENUM: TUMOR, Dose [Carcinogen]: 100 MG/L IN DRINKING WATER FOR 4 WK, Promoter: NONE USED); 22/33 (67%), 18/31 (58%), 13%, not significant (Carcinogen: N-ETHYL-N'-NITRO-N-NITROSOGUANIDINE, 4245-77-6, Dose [Inhibitor]: 0, 20 MG/KG/D IN DIET FOR DURATION OF STUDY (STUDY DURATION: 16 WK), Route [Inhibitor]: ORAL, Species: MOUSE, Strain/Sex: C57BL/MALE, Target Tissue: Type of Lesion: DUODENUM: TUMOR, Dose [Carcinogen]: 100 MG/L IN DRINKING WATER FOR 4 WK, Promoter: NONE); 22/33 (67%), 14/33 (42%), 37%, p<0.05 (Carcinogen: N-ETHYL-N'-NITRO-N-NITROSOGUANIDINE, 4245-77-6, Dose [Inhibitor]: 0, 50 MG/KG/D IN DIET FOR 16 WK (STUDY DURATION: 16 WK), Route [Inhibitor]: ORAL, Species: MOUSE, Strain/Sex: C57BL/MALE, Target Tissue: Type of Lesion: DUODENUM: TUMOR, Dose [Carcinogen]: 100 MG/L IN DRINKING WATER FOR 4 WK, Promoter: NONE USED); 22/33 (67%), 14/31 (45%), 33%, not significant (Carcinogen: N-ETHYL-N'-NITRO-N-NITROSOGUANIDINE, 4245-77-6, Dose [Inhibitor]: 0, 50 MG/KG/D IN DIET FOR DURATION OF STUDY (STUDY DURATION: 16 WK), Route [Inhibitor]: ORAL, Species: MOUSE, Strain/Sex: C57BL/MALE, Target Tissue: Type of Lesion: DUODENUM: TUMOR, Dose [Carcinogen]: 100 MG/L IN DRINKING WATER FOR 4 WK, Promoter: NONE); 10/13 (77%), 8/13 (62%), 19%, not significant (Carcinogen: N-METHYL-N'-NITRO-N-NITROSOGUANIDINE, 70-25-7, Dose [Inhibitor]: 0, 20 MG/KG/D IN DIET FOR 34 WK BEGINNING 10 WK POST FIRST CARCINOGEN DOSE (STUDY DURATION: 44 WK), Route [Inhibitor]: ORAL, Species: RAT, Strain/Sex: WISTAR/MALE, Target Tissue: Type of Lesion: STOMACH: TUMOR, Dose [Carcinogen]: 80 MG/L IN DRINKING WATER FOR 28 WK, Promoter: NONE).

Turning to `C`, the “tumour outcome (control, treated, inhibition, significance)” value (Carcinogen: N-METHYL-N'-NITRO-N-NITROSOGUANIDINE [70-25-7], Dose [Inhibitor]: 100 MG/KG BW AQUALEN (ACTIVATED CARBON FIBER ADSORBENT) IN DIET 5X/WK FOR 16 MONTHS (STUDY DURATION: 16 MONTHS), Route [Inhibitor]: ORAL, Species: RAT, Strain/Sex: LIO/FEMALE, Target Tissue: Type of Lesion: DUODENUM: ADENOCARCINOMA, Dose [Carcinogen]: 100 MG/L IN DRINKING WATER 5X/WK FOR 12 MONTHS (STUDY DURATION: 16 MONTHS), Promoter: NONE) was 2/14 (14.3%), 0/13 (0.0%), 100%, not significant; the “tumour outcome (control, treated, inhibition, significance)” value (Carcinogen: N-METHYL-N'-NITRO-N-NITROSOGUANIDINE [70-25-7], Dose [Inhibitor]: 100 MG/KG BW AQUALEN (ACTIVATED CARBON FIBER ADSORBENT) IN DIET 5X/WK FOR 16 MONTHS (STUDY DURATION: 16 MONTHS), Route [Inhibitor]: ORAL, Species: RAT, Strain/Sex: LIO/FEMALE, Target Tissue: Type of Lesion: LIVER: CYSTOCHOLANGIOMA, Dose [Carcinogen]: 100 MG/L IN DRINKING WATER 5X/WK FOR 12 MONTHS (STUDY DURATION: 16 MONTHS), Promoter: NONE) is given as 2/14 (14.3%), 0/13 (0.0%), 100%, not significant; the “tumour outcome (control, treated, inhibition, significance)” value (Carcinogen: N-METHYL-N'-NITRO-N-NITROSOGUANIDINE [70-25-7], Dose [Inhibitor]: 100 MG/KG BW AQUALEN (ACTIVATED CARBON FIBER ADSORBENT) IN DIET 5X/WK FOR 16 MONTHS (STUDY DURATION: 16 MONTHS), Route [Inhibitor]: ORAL, Species: RAT, Strain/Sex: LIO/FEMALE, Target Tissue: Type of Lesion: STOMACH: CARCINOMA IN SITU, Dose [Carcinogen]: 100 MG/L IN DRINKING WATER 5X/WK FOR 12 MONTHS (STUDY DURATION: 16 MONTHS), Promoter: NONE) is given as 1/14 (7.1%), 4/13 (30.8%), -334%, not significant; the “tumour outcome (control, treated, inhibition, significance)” value (Carcinogen: N-METHYL-N'-NITRO-N-NITROSOGUANIDINE [70-25-7], Dose [Inhibitor]: 100 MG/KG BW AQUALEN (ACTIVATED CARBON FIBER ADSORBENT) IN DIET 5X/WK FOR 16 MONTHS (STUDY DURATION: 16 MONTHS), Route [Inhibitor]: ORAL, Species: RAT, Strain/Sex: LIO/FEMALE, Target Tissue: Type of Lesion: STOMACH: INVASIVE ADENOCARCINOMA, Dose [Carcinogen]: 100 MG/L IN DRINKING WATER 5X/WK FOR 12 MONTHS (STUDY DURATION: 16 MONTHS), Promoter: NONE) is listed as 5/14 (35.7%), 1/13 (7.7%), 78%, p<0.05.

For `NCCCCNCCCN`, the “tumour outcome (control, treated, inhibition, significance)” value is 7/137 (5%), 2/31 (6%), -20%, not calculated (Carcinogen: TRANS-5-AMINO-3-[2-(5-NITRO-2-FURYL)VINYL]-1,2,4-OXADIAZOLE;SQL8506, 28754-68-9, Carcinogen: TRANS-5-AMINO-3-[2-(5-NITRO-2-FURYL)VINYL]-1,2,4-OXADIAZOLE;SQL8506, 28754-68-9, Dose [Inhibitor]: 150 MG/KG 16 HR BEFORE THE 1ST CARCINOGEN DOSE FOLLOWED BY ADDITIONAL DOSES IMMEDIATELY BEFORE EACH DOSE OF CARCINOGEN (, Route [Inhibitor]: INTRAPERITONEAL, Species: MOUSE, Strain/Sex: CD-1/FEMALE, Target Tissue: Type of Lesion: HEMATOPOIETIC SYSTEM: MYELOID LEUKEMIA, Dose [Carcinogen]: 1 G/KG 2/D FOR 5 D EVERY 4 WK FOR 3 COURSES OF TREATMENT, Promoter: NONE USED); 8/137 (6%), 1/31 (3%), 50%, not calculated (Carcinogen: TRANS-5-AMINO-3-[2-(5-NITRO-2-FURYL)VINYL]-1,2,4-OXADIAZOLE;SQL8506, 28754-68-9, Carcinogen: TRANS-5-AMINO-3-[2-(5-NITRO-2-FURYL)VINYL]-1,2,4-OXADIAZOLE;SQL8506, 28754-68-9, Dose [Inhibitor]: 150 MG/KG 16 HR BEFORE THE 1ST CARCINOGEN DOSE FOLLOWED BY ADDITIONAL DOSES IMMEDIATELY BEFORE EACH DOSE OF CARCINOGEN (, Route [Inhibitor]: INTRAPERITONEAL, Species: MOUSE, Strain/Sex: CD-1/FEMALE, Target Tissue: Type of Lesion: LYMPHOID TISSUE: NONTHYMIC LYMPHOMA, Dose [Carcinogen]: 1 G/KG 2/D FOR 5 D EVERY 4 WK FOR 3 COURSES OF TREATMENT, Promoter: NONE USED); 22/137 (16%), 4/31 (13%), 19%, not calculated (Carcinogen: TRANS-5-AMINO-3-[2-(5-NITRO-2-FURYL)VINYL]-1,2,4-OXADIAZOLE;SQL8506, 28754-68-9, Carcinogen: TRANS-5-AMINO-3-[2-(5-NITRO-2-FURYL)VINYL]-1,2,4-OXADIAZOLE;SQL8506, 28754-68-9, Dose [Inhibitor]: 150 MG/KG 16 HR BEFORE THE 1ST CARCINOGEN DOSE FOLLOWED BY ADDITIONAL DOSES IMMEDIATELY BEFORE EACH DOSE OF CARCINOGEN (, Route [Inhibitor]: INTRAPERITONEAL, Species: MOUSE, Strain/Sex: CD-1/FEMALE, Target Tissue: Type of Lesion: LYMPHOID TISSUE: THYMIC LYMPHOMA, Dose [Carcinogen]: 1 G/KG 2/D FOR 5 D EVERY 4 WK FOR 3 COURSES OF TREATMENT, Promoter: NONE USED); 60/137 (44%), 7/31 (23%), 48%, not calculated (Carcinogen: TRANS-5-AMINO-3-[2-(5-NITRO-2-FURYL)VINYL]-1,2,4-OXADIAZOLE;SQL8506, 28754-68-9, Carcinogen: TRANS-5-AMINO-3-[2-(5-NITRO-2-FURYL)VINYL]-1,2,4-OXADIAZOLE;SQL8506, 28754-68-9, Dose [Inhibitor]: 150 MG/KG 16 HR BEFORE THE 1ST CARCINOGEN DOSE FOLLOWED BY ADDITIONAL DOSES IMMEDIATELY BEFORE EACH DOSE OF CARCINOGEN (, Route [Inhibitor]: INTRAPERITONEAL, Species: MOUSE, Strain/Sex: CD-1/FEMALE, Target Tissue: Type of Lesion: STOMACH: SQUAMOUS SARCOMA, Dose [Carcinogen]: 1 G/KG 2/D FOR 5 D EVERY 4 WK FOR 3 COURSES OF TREATMENT, Promoter: NONE USED).

As to `CC1(C)CCC2(C(=O)OC3OC(CO)C(O)C(O)C3O)CCC3(CO)C(=CCC4C5(C)CC(O)C(O)C(C)(C(=O)OC6OC(CO)C(O)C(O)C6O)C5CCC43C)C2C1` (stereo not given), the “tumour outcome (control, treated, inhibition, significance)” value is 56%, 53%, 5%, not calculated (Carcinogen: BENZO[A]PYRENE, 50-32-8, Dose [Inhibitor]: 0, 12.85 MG/ML IN DRINKING WATER FOR 6 WK (STUDY DURATION: 9 WK), Route [Inhibitor]: ORAL, Species: MOUSE, Strain/Sex: NIGP(S)/FEMALE, Target Tissue: Type of Lesion: LUNG: ADENOMA, Dose [Carcinogen]: 0.5 MG INJECTED IN THE SCAPULAR REGION OF NEWBORN MICE ONCE, Promoter: NONE USED) and 38%, 37%, 3%, not calculated (Carcinogen: BENZO[A]PYRENE, 50-32-8, Dose [Inhibitor]: 0, 12.85 MG/ML IN DRINKING WATER FOR 6 WK (STUDY DURATION: 9 WK), Route [Inhibitor]: ORAL, Species: MOUSE, Strain/Sex: NIGP(S)/MALE, Target Tissue: Type of Lesion: LUNG: ADENOMA, Dose [Carcinogen]: 0.5 MG INJECTED IN THE SCAPULAR REGION OF NEWBORN MICE ONCE, Promoter: NONE USED).
